According to patent US7943633B2, “Alkaloid compounds and their use as anti-malarial drugs” (Universite Pierre et Marie Curie (Paris VI), priority 2004, dated 2011):
Several values for one entry are separate records, joined by “and”; a condition that tells them apart may be missing. Equal entries are not always repeated. Where two headings read alike, the source gives them in different places.

Legend:
[1] = In vitro cytotoxicity, neutral red, KB cells; format: cell-based; settings: human, KB carcinoma cells (ATCC CCL-17), 72 hours incubation, read-out: CI50 cytotoxicity KB (converted)
Description: (§1) Stock solutions of testing compounds were prepared in H2O/DMSO (9/1).
(§2) After an incubation of 72 hours at 37° C. under a 5% CO2 atmosphere, 0.02% of neutral red in PBS was added.
(§3) 24 hours later, culture media were eliminated and cell membranes were lysed by addition of 1% of SDS in water.
(§4) Cell growth was estimated by colorimetric measurement of stained living cells, incorporating neutral red. Optical density was determined at 540 nm on a Titertek Multiskan photometer.
(§5) The Cl50 value was defined as the concentration of compound necessary to inhibit the cell growth to 50% of the control.

[2] = In vitro cytotoxicity, neutral red, HT29 cells; format: cell-based; settings: human, HT29 colon tumor cells (ATCC HTB-38), 72 hours incubation, read-out: CI50 cytotoxicity HT29 (converted)
Description: as §1, §2, §3, §4, §5

[3] = tested on: Plasmodium yoelii yoelii 265BY; experiment: In vitro inhibition of P. yoelii yoelii 265BY growth (hepatic stage) in primary murine hepatocytes; format: cell-based; settings: for IC50: Plasmodium yoelii, Hepatocyte, read-out: CI50 activity P. yoelii 265BY; for Selectivity index CI50 KB/CI50 yoelii: ratio between CI50 of cytotoxicity (KB) and CI50 of anti-malarial activity
Description: Primary cultures of mouse hepatocytes were isolated from livers of Swiss mice which were 6 to 8 weeks old by perfusion with collagenase (1 g/L) and purified through a 60% Percoll gradient.
The hepatocytes were cultured in sterile chambers (Lab-Tek) at the rate of 90,000 cells in 0.3 mL of complete culture medium as defined thereafter per well and incubated overnight at 37° C. under a 4% CO2 atmosphere. The hepatocytes' complet culture medium was Williams' E culture medium supplemented with 10% of decomplemented foetal calf serum, 1% glutamine, 1% Na pyruvate, 1% of a mixture of insulin, transferrine and selenium, 1% of non-essential amino-acids and with an antibiotic mixture comprising 1% of a solution of penicillin and streptomycine, 1% augmentin and […] flucytosine.
The parasites infecting the hepatocytes; i.e. the sporozoites, were recovered by dissection of infected anopheles mosquitoes salivary glands.
After grinding them in a Potter grinder with culture medium, the suspension was filtered on a 40 μm mesh filter and centrifuged (15,000 rpm) at 4° C. for 2 mn. The pellet was reintroduced in the complete culture medium. The sporozoites were then counted in a “Cell Vu” counter (CML) and the concentration was adjusted at 100,000 sporozoites per 70 μL, concentration needed for infection.
One day after, the hepatocytes were infected by the above sporozoites from salivary glands of infected anopheles mosquitoes at the rate of 100,000 sporozoites per well in the presence or absence of the product to be tested. When the infection had appeared, the medium was supplemented with 10^−7 M dexamethasone. The products were first solubilized in DMSO.
The infected hepatocytes were washed and fed with culture medium containing the test product, 3 hours and then 24 hours after the infection.
The cultures were stopped by treatment with a cold fixative methanol solution, 48 hours after the infection.
Parasites obtained in schizont stage were immunomarked firstly, with a serum isolated from BALB/c mice immunized with a recombinant fragment from the N-terminal of the recombinant protein I72 that reacted against HSP70 of Plasmodium and secondly with an antibody—a mouse anti-immunoglobulin—conjugated to FITC. Evans Blue and DAPI, a nucleic acid marker, were added to the hepatocytes simultaneously. The schizonts were then counted with a fluorescent microscope.
(§6) The Cl50 value (concentration causing 50% of inhibition in the number of parasites compared to controls wells, non treated) is the mean value of 3 independent evaluations through StatView SI Graphics.

[4] = tested on: Plasmodium falciparum NF54; experiment: In vitro inhibition of P. falciparum NF54 (hepatic stage) in human hepatocytes; format: cell-based; settings: NF54, Hepatocyte, 120 h, fixed 5 days after infection, read-out: CI50 activity P. falciparum NF54
Description: B—Human Model: Hepatic Stage of Plasmodium falciparum NF54
Human hepatocytes were obtained by enzymatic perfusion of fragments of liver of human adults which were submitted to partial hepatectomy.
The hepatocytes were infected at 24 hours of their culture by sporozoites obtained from salivary glands of P. falciparum infecting anopheles mosquitoes stephensi (Lab. of Pr. W. Eling, Univ. Of Nijmegen, NL).
The culture medium containing the test product was changed 3 hours after infection, and then renewed at least, each 24 hours during the experiment.
The cultures were fixed 5 days after infection, with the same method as described for the murine hepatocytes.
as §6

[5] = tested on: Plasmodium yoelii yoelii 265BY; experiment: In vivo antimalarial activity in Swiss mice infected with sporozoites; settings: for number of parasited red blood cells (parasitemia): compared to control group; for Number of parasited mice/total mice: 100 mg/kg fed four times
Description: 40 Swiss mice (six week old) have been subjected to the in vivo assay. They have been allotted in two groups: • a group of 20 mice were fed with compound (1) diluted in sterile water at a dose of 100 mg/kg four times; 24 hours and 1 hour before infection, 24 hours and 40 hours after infection during the hepatic stage period. • a control group of 20 mice were fed with sterile water at the same times.
The infection has been performed by retro-orbital injection of 4,000 sporozoites of Plasmodium yoelii yoelii 265BY in 100 μl phospate-buffered saline per mouse.
The parasitemia was monitored from the third day after the infection D3 when the parasites are liberated from the liver and enter into the blood circulation and each day until the 23rd day D23 after infection. The monitoring was performed by blood smears taken from the tail vein of the mice. The smears were stained with Giemsa and parasited red blood cells were counted with a microscope.
The parasitemia was calculated according to the following formula: Parasited red blood cell number×100/total red blood cell number.

Row | SMILES | IC50 at 72 h [1] | IC50 at 72 h [2] | Selectivity index CI50 KB/CI50 yoelii [3] | IC50 ([3]; 48 h) | also measured
1 | O=c1[nH]cc(F)c(=O)[nH]1 [5-fluorouracile, reference compound] | 0.047 µg/mL and 360 nM | 54.9 µg/mL and 422 µM |  |  | 
2 | O=C1C(O)=C([C@H]2CC[C@H](c3ccc(Cl)cc3)CC2)C(=O)c2ccccc21 [Atovaquone, atovaquone, reference compound] | 18.6 µg/mL and 50.8 µM | 44.6 µg/mL and 122 µM | 891.2 |  | IC50 ([3]; murine hepatocytes, schizonts counted 48 hours after infection, mean of 3 evaluations): 0.021 µg/mL; IC50 ([3]; murine hepatocytes, schizonts counted 48 hours after infection): 57 nM
3 | COC1=C2[C@H]3NCC[C@]2(C[C@H](O)[C@@H]1O)c1c(ccc(OC)c1O)[C@H]3O [Compound (1), 4,6,7,10-tetrahydroxy-8,14-didehydro-3,8-dimethoxy-morphinan] | 1.99 µg/mL and 5.7 µM | 22 µg/mL and 63 µM | 1.8 | 1.08 µg/mL and 3.1 µM | IC50 [4]: 1.51 µg/mL and 4.3 µM; number of parasited red blood cells (parasitemia) ([5]; 100 mg/kg): reduces parasitemia; number of parasited red blood cells (parasitemia) ([5]; 100 mg/kg, listed as compound (1)): significant decrease; total protection against malaria infection in mice ([5]; 100 mg/kg, oral administration): 70%; survival of mice at D23 ([5]; 100 mg/kg, control group 75%): 90%; delay of parasitemia for treated mice not protected, compared to control ([5]; 100 mg/kg, the 30% of treated mice not protected): ≥ 3 days; Number of parasited mice/total mice ([5]; D3 post-infection): 0/20; Number of parasited mice/total mice ([5]; D4 post-infection): 0/20; Number of parasited mice/total mice ([5]; D5 post-infection): 0/20; Number of parasited mice/total mice ([5]; D6 post-infection): 1/20; Number of parasited mice/total mice ([5]; D7 post-infection): 4/20; Number of parasited mice/total mice ([5]; D8 post-infection): 6/20; Number of parasited mice/total mice ([5]; D23 post-infection): 6/18
4 | COC1=C2[C@@H]3Cc4ccc(OC)c(O)c4[C@]2(CCN3)C[C@H](O)[C@@H]1O [Compound (2), 4,6,7-trihydroxy-8,14-didehydro-3,8-dimethoxy-morphinan] | 1.3 µg/mL and 3.9 µM | 12.2 µg/mL and 36.8 µM | 0.9 | 1.5 µg/mL and 4.5 µM | IC50 [4]: 3.36 µg/mL and 10.1 µM
5 | COC1=C2[C@@H]3[C@H](O)c4ccc(OC)c(O)c4[C@]2(CCN3C)C[C@H](O)[C@@H]1O [Compound (3), N-methyl-4,6,7,10-tetrahydroxy-8,14, didehydro-3,8-dimethoxy-morphinan] | 32.3 µg/mL and 89 µM | > 80 µg/mL and > 220 µM | 15.5 | 2.09 µg/mL and 5.8 µM | 
6 | CCCN1CC[C@@]23C[C@H](O)[C@H](O)C(OC)=C2[C@@H]1[C@H](O)c1ccc(OC)c(O)c13 [Compound (4), N-propyl-4,6,7,10-tetrahydroxy-8,14, didehydro-3,8-dimethoxy-morphinan] | 40.4 µg/mL and 103 µM | > 80 µg/mL and > 204 µM | 8.2 | 4.93 µg/mL and 12.6 µM | 
7 | COC1=C2[C@@H]3[C@H](O)c4ccc(OC)c(O)c4[C@]2(CCN3Cc2ccc(OC)cc2)C[C@H](O)[C@@H]1O [Compound (5), N-4-methoxybenzyl-4,6,7,10-tetrahydroxy-8,14, didehydro-3,8-dimethoxy-morphinan] | 21.2 µg/mL and 45.3 µM | > 80 µg/mL and > 170 µM | 1.9 | 11.4 µg/mL and 24.2 µM | 
8 | COC1=C2[C@@H]3[C@H](O)c4ccc(OC)c(O)c4[C@]2(CCN3Cc2ccc(O)cc2)C[C@H](O)[C@@H]1O [Compound (6), N-4-hydroxybenzyl-4,6,7,10-tetrahydroxy-8,14, didehydro-3,8-dimethoxy-morphinan] | 9.53 µg/mL and 20.9 µM | 49 µg/mL and 108 µM | 1.5 | 6.44 µg/mL and 14.2 µM | 
9 | COC1=C2[C@@H]3[C@H](O)c4ccc(OC)c(O)c4[C@]2(CCN3Cc2ccc(Br)cc2)C[C@H](O)[C@@H]1O [Compound (7), N-4-bromobenzyl-4,6,7,10-tetrahydroxy-8,14, didehydro-3,8-dimethoxy-morphinan] | 15.8 µg/mL and 30.5 µM | > 80 µg/mL and > 154 µM | 7.3 | 2.19 µg/mL and 4.2 µM | 
10 | COC1=C2[C@@H]3[C@H](O)c4ccc(OC)c(O)c4[C@]2(CCN3C2CCCC2)C[C@H](O)[C@@H]1O [Compound (8), N-cyclopentyl-4,6,7,10-tetrahydroxy-8,14, didehydro-3,8-dimethoxy-morphinan] | 27.6 µg/mL and 66.3 µM | > 80 µg/mL and > 192 µM | 18.9 | 1.46 µg/mL and 3.5 µM | 
11 | CC[C@]1(O)C[C@@H]2CN(CCc3c([nH]c4ccccc34)[C@@](C(=O)OC)(c3cc4c(cc3OC)N(C)[C@H]3[C@@](O)(C(=O)OC)[C@H](OC(C)=O)[C@]5(CC)C=CCN6CC[C@]43[C@@H]65)C2)C1 [Vinblastine, vinblastine, reference compound] | 0.018 µg/mL and 22 nM | 0.008 µg/mL and 9.9 nM |  |  | 
12 | COc1cc(NC(C)CCCN)c2ncccc2c1 (centres unmarked) [primaquine, reference compound] | 2 µg/mL and 7 µM | 20.1 µg/mL and 70.5 µM | 11.7 | 0.16 µg/mL and 600 nM | 
